PMC7037732, “Synthesis of Combretastatin A-4 and 3′-Aminocombretastatin A-4 derivatives with Aminoacid Containing Pendants and Study of their Interaction with Tubulin and as Downregulators of the VEGF, hTERT and c-Myc Gene Expression” (Molecules, 2020)
“And” between values parts separate entries of the source, which are not always exact repeats. Equal values may be shown once. “Also recorded” adds a separate entry of the source.

Tests used:
A-549 cells = experiment: Effect on the cellular microtubule network (immunofluorescence); assay type: cell-based, human
Description: The effect on the cellular microtubule network of CA-4 derivatives was studied for compounds 1, 3.7 (L-Thr-OMe), 3.8 (L-Tyr-OMe), 4.2 (L-Val) and 4.3 (L-Leu), which were those accumulating more cells in the G2/M phase. Thus, A-549 cells were incubated for 24 h in the presence of the above compounds and CA-4 at the concentrations indicated in Figure 4.
The effect of some derivatives on the cellular microtubule network were also studied on A-549 cells. The selected compounds were 7.1 (Fmoc-Gly) (0.5 μM), 8.1 (Gly) (2 μM), 8.2 (L-Ala) (3 μM) and 10.1 (D-Val) (40 μM), which were those exerting a higher effect on the cell cycle.
For immunofluorescence microscopy of the microtubule network, 10^6 cells were plated on cover glass and incubated with the different drugs. Cells were then fixed in 3.7% formaldehyde (in PBS pH 7.4) for 20 min at room temperature and permeabilized with PBS-Triton X-100 0.5% for 10 min at room temperature. Direct immunostaining was carried out for 2 h at room temperature with a primary FITC-conjugated anti-α-tubulin antibody (dilution 1:400 in PBS-BSA 1% from a 1 mg/mL solution; monoclonal antibody, clone DM1A; Sigma-Aldrich, Darmstadt, Germany.). Next, cells were incubated for 45 min at room temperature in darkness with secondary Alexa Fluor 488-conjugated antibodies (dilution 1:200 each from 1.5 mg/mL; Molecular Probe, France). Then, cells were washed in PBS and cover glasses were mounted with a drop of ProLong® antifade solution (Invitrogen). The cytoskeleton was imaged by a confocal laser scanning microscope (CLSM) Leica SP5 with a Leica inverted microscope, equipped with a Plan-Apochromat 63× oil immersion objective (NA = 1.4). Each image was recorded with the CLSM’s spectral mode selecting specific domains of the emission spectrum. The FITC fluorophore was excited at 488 nm with an argon laser, and its fluorescence emission was collected between 496 nm and 535 nm.

tubulin = experiment: In vitro tubulin polymerization by turbidimetry (It50); assay type: biochemical; settings: turbidimetry at 350 nm, 37 °C; for Effect on in vitro tubulin polymerization: result in words; for It50 (time required to reach 50% of the polymerization): control 16.6 ± 1.0
Description: Figure 3 also includes polymerization curves in the presence of CA-4, AmCA-4 and paclitaxel. This test was also performed using paclitaxel, a microtubule stabilizing agent, as a control for the complete formation of microtubules (see Figure 3).

SMILES	Effect on in vitro tubulin polymerization (tubulin)	It50 (time required to reach 50% of the polymerization) (tubulin)	other results
COc1ccc(/C=C\c2cc(OC)c(OC)c(OC)c2)cc1O [CA-4, combretastatin A-4]	almost no absorbance is detected	–	Effect on the microtubule network (A-549 cells; A-549, 24 h, 50 nM): greatly depolymerizes microtubules
COc1ccc(/C=C\c2cc(OC)c(OC)c(OC)c2)cc1NC(=O)CNC(=O)OCC1c2ccccc2-c2ccccc21 [Compound 7.1]	–	16 ± 3 min	Effect on the microtubule network (A-549 cells; A-549, 0.5 μM): almost total depolymerization of the microtubule network
COc1ccc(/C=C\c2cc(OC)c(OC)c(OC)c2)cc1N [AmCA-4, 3′-aminocombretastatin A-4]	almost no absorbance is detected	–	Effect on the microtubule network (A-549 cells; A-549, 24 h, 50 nM): total depolymerization of microtubules
COc1ccc(/C=C\c2cc(OC)c(OC)c(OC)c2)cc1NC(=O)[C@H](C)N [Compound 8.2]	able to delay the polymerization process; also recorded: partial inhibitors of the polymerization process; also recorded: partial inhibitors of the in vitro polymerization of tubulin	48 ± 5 min	Effect on the microtubule network (A-549 cells; A-549, 3 μM): almost total depolymerization of the microtubule network
COc1ccc(/C=C\c2cc(OC)c(OC)c(OC)c2)cc1NC(=O)[C@@H](N)Cc1ccccc1 [Compound 8.5]	–	–	Effect on the microtubule network (A-549 cells; A-549, 0.5 μM): much less active
COc1ccc(/C=C\c2cc(OC)c(OC)c(OC)c2)cc1NC(=O)CN [Compound 8.1]	–	18.5 ± 2.1 min	Effect on the microtubule network (A-549 cells; A-549, 2 μM): almost total depolymerization of the microtubule network
COc1ccc(/C=C\c2cc(OC)c(OC)c(OC)c2)cc1NC(=O)[C@@H](N)C(C)O (some centres unmarked) [Compound 8.7]	able to delay the polymerization process; also recorded: partial inhibitors of the polymerization process; also recorded: partial inhibitors of the in vitro polymerization of tubulin	65 min and 65 ± 7 min	–
